Here are results for five compounds from the RepoRT retention time repository (doi:10.1016/j.chroma.2019.01.023).

What all share (settings): stereoisomer not certain
The nature of data set [1]: HILIC, Merck SeQuant ZIC-pHILIC, 150 × 2.1 mm, 5 µm, 40 °C, 0.3 mL/min, estimated dead time 1.1 min; A: acetonitrile; B: water + 2.8 mM ammonium formate, pH 9; gradient (min/%B) 0/5 1/5 10/51 13/51 13.1/5 20/5.
Data set [2] is described as follows: RP, Phenomenex Kinetex C18, 150 × 2.1 mm, 1.7 µm, 30 °C, 0.3 mL/min, estimated dead time 1.1 min; A: water + 0.1% formic acid, pH 3; B: acetonitrile + 0.1% formic acid, pH 3; gradient (min/%B) 0/2 14/100 17/100 17.1/2 25/2.
Experiment in data set [3]: as above
This is another data set of the same source.

A short description of data set [4]: HILIC, Waters ACQUITY UPLC BEH Amide, 150 × 2.1 mm, 1.7 µm, 40 °C, 0.5 mL/min, estimated dead time 0.66 min; A: 5% water + 95% acetonitrile; B: 70% water + 30% acetonitrile + 10 mM ammonium formate, pH 6.5; gradient (min/%B) 0/0 2/0 20/70 23/70 24/0 31/0.

On to `Cc1c[nH]c(=O)[nH]c1=O` [THYMINE], for which the LC retention time was 2.68 min in data set [1], 2.42 min in data set [2], 2.54 min in data set [3] and 1.6 min in data set [4].
In the case of `NC(Cc1ccc(O)cc1)C(=O)O` (stereo not given) [TYROSINE], the LC retention time was 8.2 min in data set [1], 2 min in data set [2], 2.11 min in data set [3] and 9 min in data set [4].
For `O=c1ccn(C2OC(CO)C(O)C2O)c(=O)[nH]1` (stereo not given) [URIDINE], in that order: 6.2 min, 1.88 min, 2.06 min and 3.65 min.
With `O=c1[nH]c(=O)c2[nH]cnc2[nH]1` [XANTHINE], the LC retention time is 6.53 min in data set [1], 1.82 min in data set [2], 2.05 min in data set [3] and 4.97 min in data set [4].
Turning to `O=c1[nH]c(=O)c2ncn(C3OC(CO)C(O)C3O)c2[nH]1` (stereo not given) [XANTHOSINE], the LC retention time is 7.99 min in data set [1], 3.01 min in data set [2], 3.11 min in data set [3] and 7.17 min in data set [4].
